Here are results for 13 molecules from patent US11976083B2, “Inhibitors of peptidylarginine deiminases” (Gilead Sciences, Inc., priority 2020, dated 2024).

This test concerns the target T1, human PAD4 (Homo sapiens, UniProt Q9UM07).
T1 construct: human PAD4 (NM_012387), A2-P663, was PCR amplified; His-SUMO (N, cleaved yes); made in house; host or cells: E. coli BL21(DE3)
Briefly: In vitro PAD4 BAEE biochemical assay. As to conditions: BAEE substrate 3 mM, 5 nM PAD4, 2 mM calcium chloride; geometric mean of multiple experiments. In a few lines: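 Fluorescence read-out (ex 405/em 535 nm) of isoindole formed from ammonia, o-phthalaldehyde and DTT after EDTA stop. Reaction: 5 nM PAD4, 2 mM CaCl2, 3 mM BAEE, 2 h, 25 °C, after 30 min enzyme–compound preincubation. Normalised to BB-Cl-Amidine (50 µM) and DMSO controls.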

T1 sequence (Q9UM07 2-663): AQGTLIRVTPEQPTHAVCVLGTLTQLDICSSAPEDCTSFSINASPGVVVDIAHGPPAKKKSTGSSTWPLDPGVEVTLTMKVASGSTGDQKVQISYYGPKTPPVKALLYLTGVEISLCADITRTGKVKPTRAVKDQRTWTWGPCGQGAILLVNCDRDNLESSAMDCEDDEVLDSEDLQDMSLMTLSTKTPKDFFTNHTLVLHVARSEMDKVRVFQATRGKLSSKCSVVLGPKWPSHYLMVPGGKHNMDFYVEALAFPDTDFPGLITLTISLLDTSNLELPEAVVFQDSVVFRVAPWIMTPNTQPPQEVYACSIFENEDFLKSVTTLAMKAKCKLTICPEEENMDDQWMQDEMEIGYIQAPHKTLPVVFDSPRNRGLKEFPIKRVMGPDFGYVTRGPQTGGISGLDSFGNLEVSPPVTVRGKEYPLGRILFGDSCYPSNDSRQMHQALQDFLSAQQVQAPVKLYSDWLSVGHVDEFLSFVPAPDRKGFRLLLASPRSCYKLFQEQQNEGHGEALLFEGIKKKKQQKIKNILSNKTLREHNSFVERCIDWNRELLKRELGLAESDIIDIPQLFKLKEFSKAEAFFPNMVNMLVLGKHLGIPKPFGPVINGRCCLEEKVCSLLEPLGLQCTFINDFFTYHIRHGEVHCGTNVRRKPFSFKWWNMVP

One may read the IC50 as the point on the concentration scale where inhibition reaches its midpoint. `COc1cc(C(=O)N2CC[C@@H](O)[C@@H](N)C2)cc2nc(-c3cc4ccc5nc4n3CCCCCCC(C)(C)C(=O)N[C@@H]5C)n(C)c12` [Example 195, (11~{R})-17-[5-[(3~{S},4~{R})-3-amino-4-hydroxy-piperidine-1-carbonyl]-7-methoxy-1-methyl-benzimidazol-2-yl]-8,8,11-trimethyl-1,10,19-triazatricyclo[10.5.2.0^{15,18}]nonadeca-12(19),13,15(18),16-tetraen-9-one]: the IC50 stood at 0.056 µM.
Regarding `COc1cc(C(=O)N2CC[C@@H](OC(F)F)[C@@H](N)C2)cc2nc(-c3cc4ccc5nc4n3CCCCCc3cc4ccccc4nc3C(=O)N(C)[C@@H]5C)n(C)c12` [Example 736, (2~{R})-21-[5-[(3~{S},4~{R})-3-amino-4-(difluoromethoxy)piperidine-1-carbonyl]-7-methoxy-1-methyl-benzimidazol-2-yl]-2,3-dimethyl-3,6,20,26-tetrazapentacyclo[18.5.2.0^ {5,14}.0^{7,12}.0^{23,27}] heptacosa-1(26),5(14), 6,8,10,12,21,23(27),24-nonaen-4-one], the IC50 worked out at 0.304 µM.
As for `COc1cc(C(=O)N2CCC[C@@H](N)C2)cc2nc(-c3cc4ccc5nc4n3C[C@H]3C[C@@H]3[C@@H](C)OCCC(=O)N[C@@H]5C)n(C)c12` [Example 162, (3~{S),5~{S},6~{R},12~{R})-18-[5-[(3~{R})-3-aminopiperidine-1-carbonyl]-7-methoxy-1-methyl-benzimidazol-2-yl]-6,12-dimethyl-7-oxa-1,11,20-triazatetracyclo[11.5.2.0^{3,5}.0^{16,19}] icosa-13(20),14,16(19),17-tetraen-10-one], the IC50 was 0.055 µM.
The same measure for `COc1cc(C(=O)N2[C@H]3CC[C@@H]2[C@H](N)C3)cc2nc(-c3cc4ccc5nc4n3CCCCCCCC(=O)N3CCC[C@H]53)n(C)c12` [Example 125, (2˜{R})-16-[5-[(1˜{R},2˜{R},4˜{S})-2-amino-7-azabicyclo[2.2.1]heptane-7-carbonyl)-7-methoxy-1-methyl-benzimidazol-2-yl]-6,15,21-triazatetracyclo[13.5.2.0^{2,6}.0^{18,22}]docosa-1(21),16,18(22),19-tetraen-7-one]: 0.021 µM; for `COc1cc(C(=O)N2[C@H]3CC[C@@H]2[C@H](N)C3)cc2nc(-c3cc4ccc5cc4n3CCCCCCC(C)(C)C(=O)N[C@@H]5C)n(C)c12` [Example 216, (11˜{R})-17-[5-[(1˜{R},2˜{R},4˜{S})-2-amino-7-azabicyclo[2.2.1]heptane-7-carbonyl]-7-methoxy-1-methyl-benzimidazol-2-yl]-8,8,11-trimethyl-1,10-diazatricyclo[10.5.2.0^{15,18}]nonadeca-12(19),13,15(18),16-tetraen-9-one]: 0.033 µM.
With `COc1cc(C(=O)N2CC[C@@H](OC)[C@@H](N)C2)cc2nc(-c3cc4ccc5nc4n3CC(F)(F)CCCC(C)(C)C(=O)N[C@@H]5C)n(C)c12` [Example 587, (10~{R})-16-[5-[(3~{S},4~ {R})-3-amino-4-methoxy-piperidine-1-carbonyl]-7-methoxy-1-methyl-benzimidazol-2-yl]-3,3-difluoro-7,7,10-trimethyl-1,9,18-triazatricyclo[9.5.2.0^ {14,17}]octadeca-11(18),12,14(17), 15-tetraen-8-one] the figure was 0.163 µM; with `COc1cc(C(=O)N2CC[C@@H](OC)[C@@H](N)C2)cc2nc(-c3cc4ccc5nc4n3CCCC(F)(F)C[C@H]3C[C@@H]3C(=O)N[C@@H]5C)n(C)c12` [Example 856, (2~{R},5~{S},7~{R})-14-[5-[(3~{S),4~{R})-3-amino-4-methoxy-piperidine-1-carbonyl]-7-methoxy-1-methyl-benzimidazol-2-yl]-9,9-difluoro-2-methyl-3,13,19-triazatetracyclo [11.5.2.0^{5,7}.0^{16,20}] icosa-1(19),14,16(20), 17-tetraen-4-one], 0.156 µM.
As for `C[C@H]1NC(=O)c2nccnc2CCCCCn2c(-c3nc4cc(C(=O)N[C@H]5CNCC[C@@H]5F)c(F)cc4n3C3CC3)cc3ccc1nc32` [Example 243, 1-cyclopropyl-6-fluoro-~{N}-[(3~{S},4~{S})-4-fluoro-3-piperidyl]-2-[(2~{R})-2-methyl-4-oxo-3,6,9,16,22-pentazatetracyclo[14.5.2.0^{5,10}.0^{19, 23}]tricosa-1(21),5(10),6,8,17,19,22-heptaen-17-yl]benzimidazole-5-carboxamide], the IC50 is 0.068 µM.
The same measure for `COc1cc(C(=O)N2[C@H]3CC[C@@H]2[C@H](N)C3)cc2nc(-c3cc4ccc5nc4n3CCCCCCCCC(=O)N[C@@H]5C)c(C)n12` [Example 318, (12~{R})-18-[7-[(1~{R},2~{R},4~{S})-2-amino-7-azabicyclo[2.2.1]heptane-7-carbonyl]-5-methoxy-3-methyl-imidazo[1,2-a]pyridin-2-yl]-12-methyl-1,11,20-triazatricyclo[11.5.2.0^{16,19}]icosa-13(20),14,16(19),17-tetraen-10-one]: 0.018 µM; for `COc1cc(C(=O)N2CC[C@@H](OC)[C@@H](N)C2)cc2nc(-c3cc4ccc5nc4n3CCCCCC[C@@](F)(c3ccccn3)C(=O)N[C@@H]5C)n(C)c12` [Example 870, (8~{R},11~{R})-17-[5-[(3~ {S),4~{R})-3-amino-4-methoxy-piperidine-1-carbonyl]-7-methoxy-1-methyl-benzimidazol-2-yl]-8-fluoro-11-methyl-8-(2-pyridyl)-1,10,19-triazatricyclo[10.5.2.0^{15,18}] nonadeca-12(19), 13,15(18),16-tetraen-9-one]: 0.083 µM.
The same measure for `COc1cc(C(=O)N2[C@H]3CC[C@@H]2[C@H](N)C3)cc2nc(-c3cc4ccc5nc4n3CCCCCCC(=O)Nc3ccccc3-5)n(C)c12` [Example 87, 17-[5-[(1~{R},2~{R},4~{S})-2-amino-7-azabicyclo[2.2.1]heptane-7-carbonyl]-7-methoxy-1-methyl-benzimidazol-2-yl]-8,16,22-triazatetracyclo[14.5.2.0^{2,7}.0^{19,23}] tricosa-1(22),2,4,6,17,19(23),20-heptaen-9-one]: 0.083 µM; for `C[C@H]1NC(=O)[C@@H]2CC2CCCC(F)(F)Cn2c(-c3nc4cc(C(=O)N5C[C@H]6CC[C@@H]5[C@@H]6N)c(F)c(F)c4n3C)cc3ccc1nc32` (stereo partly shown) [Example 566, (2~{R},5~{R},7~{R})-14-[5-[(1~{R},4~{R},7~{R})-7-amino-2-azabicyclo [2.2.1]heptane-2-carbonyl]-6,7-difluoro-1-methyl-benzimidazol-2-yl]-11,11-difluoro-2-methyl-3,13,19-triazatetracyclo[11.5.2.0^ {5,7).0^{16,20}]icosa-1(19),14,16(20),17-tetraen-4-one]: 0.097 µM.
`COc1cc(C(=O)N[C@H]2CNCC[C@@H]2F)cc2nc(-c3cc4ccc5nc4n3CCCCC[C@H]3C[C@]3(C)C(=O)N[C@@H]5C)n(C)c12` [Example 187, 2-[(2~{R},5~{S},7~{S})-2,5-dimethyl-4-oxo-3,13,19-triazatetracyclo[11.5.2.0^{5,7}.0^{16,20}]icosa-1(19),14,16(20),17-tetraen-14-yl]-~ {N}-[(3~{S},4~{S})-4-fluoro-3-piperidyl]-7-methoxy-1-methyl-benzimidazole-5-carboxamide]: the IC50 was determined as 0.109 µM.
